Source: patent publication US11707448B2, “Combination therapies for the treatment of cancer” (Eisai R&D Management Co., Ltd., priority 2014, dated 2023)

Tests used:
Type in all cases: in vivo, mice
B16F10 melanoma tumors = assay: B16F10 melanoma model, ER-886046 with anti-CTLA4
Protocol: FIG. 8A to FIG. 8B. Synergistic anti-tumor activity of ER-886046 with anti-CTLA4 in B16F10 tumors. Panel shown in FIG. 8A) Anti-tumor growth activities of anti-CTLA4 and ER-886046 in B16F10 melanoma tumors growing in C57BL/6 mice. Panel shown in FIG. 8B) Animal body weight changes of the treatment groups. Anti-CTLA4 dosing: 200 μg for the first intravenous (iv) injection on day 3 after transplantation and 100 μg for the other three iv injections on days 6, 9 and 12 as indicated by the arrows. ER-886046 dosing: 150 mg/kg, po daily administration from day 3 to day 15 as indicated by the bars. *, p<0.05; **, p<0.01; ns, not significant; student t test.
Animal studies; In vitro cultured cancer cells were harvested and suspended in 100 μl of phosphate buffered saline at a cell concentration of 1.0×10^5 cells/ml and subcutaneously (sc) injected into the mice using a 26 g syringe on day 0. At the days post cell implantation as indicated in the figures, the mice were randomized based on the tumor size followed by treatments with radiation at 3 or 9 Gy dose per treatment, anti-PDL1 at 200 μg/mouse per intraperitoneal injection (ip), or anti-CTLA4 at 200 or 100 μg/mouse per ip injection with or without orally administration of ER-886046 at a dose of 150 mg/kg. The animals that were assigned to the treatment groups in individual study had close mean tumor weights in all groups. The tumor sizes were measured twice a week by a digital caliper (Mitutoyo Corp), and the volume was calculated using the formula (1×w^2)/2=mm^3, where 1 and w refer to the larger and smaller perpendicular dimensions collected at each measurement. Graphs of group tumor sizes (mean±SEM) and body weights (mean±SEM) versus time were plotted using software GraphPad Prism 6 (Lake Forest, Calif.). Student t-test and Gehan-Breslow-Wilcoxon test were used for statistical analysis.

[1] = tested on: immune cells in the CT26 tumors; assay: Flow cytometry of intratumoral immune cells in CT26 tumors
Protocol: FIG. 7A to FIG. 7B. Radiation and ER-886046 worked synergistically to modify the intratumoral immunity. Panel shown in FIG. 7A) Quantification of myeloid cells (CD11b^+) and cytotoxic T cells (CD8^+) in the CT26 tumors that received 9 Gy alone, 9 Gy+ER-886046, or vehicle alone. Panel shown in FIG. 7B) Quantification of myeloid-derived suppressor cells (MDSC cells, CD11b^+Gr1^+) in the tumors. Radiation was given once to the tumors on the day of randomization, while ER-886046 was administered po daily administrated at 150 mg/kg to the animals for 7 consecutive days after randomization. The tumors were analyzed by flow cytometry one day after the last dose of ER-886046. **, p<0.01; ns, not significant; student t-test.
Flow cytometry; CT26 tumors with or without treatments received were surgically resected and minced by physical pressure, followed by digestion with collagenase I at 1 mg/ml at 37° C. for 1 h. The single cell mixtures from the digestion were labelled by incubation with fluorescent antibodies against immune cell antigens and analysed by flow cytometry. Cell population calculation was performed by software FlowJo 7.6.

PAN02 pancreatic tumors = assay: PAN02 pancreatic tumor model, ER-886046 with gemcitabine and radiation
Protocol: FIG. 10. […] Antitumor activity of gemcitabine plus local radiation (RT) administered to PAN02 pancreatic tumors in C57BL/6 mice with or without ER-886046. Gemcitabine and RT dosing: a single 40 mg/kg dose of gemcitabine and a single 6 Gy dose of RT, was administered on day 27 post tumor cell injection. ER-8806046 was administered daily in an amount of 150 mg/kg from day 27 post tumor cell injection until the end of the study.
FIG. 11A to FIG. 11B. Additional experiments with combination therapy of ER-886046 and anti-metabolite chemotherapy with radiation compared to anti-metabolite chemotherapy with radiation alone. Panel shown in FIG. 11A) Gemcitabine and RT dosing: a single 40 mg/kg dose of gemcitabine and a single 6 Gy dose of RT, was administered on day 19 post tumor cell injection. ER-8806046 was administered daily in an amount of 150 mg/kg from day 19 post tumor cell injection until the end of the study. Panel shown in FIG. 11B) Gemcitabine and RT dosing: a single 40 mg/kg dose of gemcitabine and a single 6 Gy dose of RT, was administered on day 12 post tumor cell injection. ER-8806046 was administered daily in an amount of 150 mg/kg from day 12 post tumor cell injection until the end of the study. Average tumor sizes of mouse pancreatic PAN02 tumor-bearing mice that received vehicles, ER-886046, gemcitabine (gem) plus radiation (RT), ER-886046 plus RT, or ER-886046 plus gemcitabine and RT at indicated dosages and schedules. A and B represent each independent study. N=8-10 per group. NS, not significant; *, p<0.05; **, p<0.01; ***, p<0.001; and ****, p<0.0001, two-way ANOVA test.
Animal studies; In vitro cultured cancer cells were harvested and suspended in 100 μl of cold HBSS buffer at cell concentrations of 1.0×10^6 cells/ml (CT-26 cells) or of 1.0×10^7 cells/ml (PAN02 cells) and subcutaneously (sc) injected into the mice using a 26 g syringe on day 0. At the dates as indicated in the figures, the mice were randomized based on the tumor size followed by treatments with local radiation alone, gemcitabine alone (intravenous administration), ER-886046 alone (oral administration), or combinations of these treatments. […] The tumor sizes were measured twice a week by a digital caliber (Mitutoyo Corp), and the volume was calculated using the formula (1×w^2)/2=mm^3, where 1 and w refer to the larger and smaller perpendicular dimensions collected at each measurement. Graphs of group tumor sizes (mean±SEM) versus time were plotted using software GraphPad Prism 6 (Lake Forest, Calif.). Two way ANOVA was used for statistical calculation among the groups. N=8-10 in each treatment group.

C[C@H](NC(=O)c1c(C(F)F)nn(C)c1Oc1cccc(C(F)(F)F)c1)c1ccc(C(=O)O)cc1 [ER-886046]
anti-tumor growth activity, combination (B16F10 melanoma tumors; ER-886046 150 mg/kg po daily day 3-15 + anti-CTLA4 200/100 μg days 3, 6, 9, 12): highly significant anti-tumor activity | animal body weight (B16F10 melanoma tumors; ER-886046 + anti-CTLA4 combination): No animal body weight loss | anti-tumor growth activity, single agent (B16F10 melanoma tumors; alone, ER-886046 150 mg/kg po daily day 3-15, anti-CTLA4 200 μg day 3, 100 μg days 6, 9, 12): minimal activity | ratio of Gr1+ cells among CD45+CD11b+ cells (MDSC) ([1]; ER-886046 150 mg/kg po daily 7 days + 9 Gy radiation, vs vehicle or radiation alone): reduced the ratio of Gr1^+ cells among CD45^+CD11b^+ cells | tumor infiltration frequency of CD8+ T cells and CD11b+ myeloid cells ([1]; ER-886046 150 mg/kg po daily 7 days added to 9 Gy radiation, vs radiation alone): no additional significant effect | anti-tumor activity, ER-886046 plus RT vs triple combination (PAN02 pancreatic tumors; ER-886046 150 mg/kg daily + RT 6 Gy, first study (FIG. 10)): no significant difference in the anti-tumor activity | anti-tumor activity, triple combination (PAN02 pancreatic tumors; ER-886046 150 mg/kg daily from day 27 + gemcitabine 40 mg/kg + RT 6 Gy day 27, first study (FIG. 10)): best anti-tumor activity among the treatment groups | anti-tumor activity, ER-886046 alone (PAN02 pancreatic tumors; ER-886046 150 mg/kg daily from day 27, first study (FIG. 10)): more efficacious than RT plus gemcitabine | tumor-bearing animals cured (PAN02 pancreatic tumors; triple combination ER-886046 + gemcitabine + RT, day 36 after tumor cell inoculation (FIG. 11B)): five of eight
